Measurements from patent publication US20090142369A1, “Method for preventing skin-cellular injury by using green algae extract and cosmetic composition containing green algae extract” (priority 2007, published 2009).

System: fibroblasts
Assay: protective effects on UV-induced cytotoxicity (fibroblast survival rates)
Format: cell-based, human
Protocol: Green algae extracts (20 mg/ml and 10 mg/ml), Vitamin C, and Vitamin E treated fibroblasts are taken as subjects of the present experiment. The fibroblast survival rates are analyzed after 24, 48 and 72 hours of UV exposure and the results are quantified in the histogram.

Molecule	fibroblast survival rate, as % of non-UV-exposed control (Vitamin C 0.15 mM, after 24 hours of UV exposure)	fibroblast survival rate, as % of non-UV-exposed control (Vitamin C 0.15 mM, after 48 hours of UV exposure) [%]	fibroblast survival rate, as % of non-UV-exposed control (Vitamin C 0.15 mM, after 72 hours of UV exposure) [%]	fibroblast survival rate, as % of non-UV-exposed control (Vitamin E 25 μM, after 24 hours of UV exposure)	fibroblast survival rate, as % of non-UV-exposed control (Vitamin E 25 μM, after 48 hours of UV exposure) [%]	fibroblast survival rate, as % of non-UV-exposed control (Vitamin E 25 μM, after 72 hours of UV exposure) [%]
O=C1O[C@H]([C@@H](O)CO)C(O)=C1O [Vitamin C]	about 53%	~29	~22			
Vitamin E				about 49%	~27	~23
